Test results as given in patent US12371464B2, “Polypeptides and uses thereof” (MEDIMMUNE LIMITED, priority 2020, dated 2025).
Numbered stars: 1 amine (or outer) side, 2 acyl side, 3 side chain; on linkers, the order of the positions; unused ones are H or OH. Bridge positions count the residues as written; N and C are the ends. Square brackets hold non-standard residues; d marks the D form. Side chains are listed from the residue outwards. Peptide text beside a SMILES is read from it. * marks the point of attachment. C18 diacid = O=C(O)CCCCCCCCCCCCCCCCC(=O)*; γGlu = O=C(O)[C@H](CCC(=O)[*:2])N[*:1]; αMeF = C[C@](N)(Cc1ccccc1)C(=O)O; Dab = NCC[C@H](N)C(=O)O; Aib = CC(C)(N)C(=O)O

test: Thioflavin T fibrillation assay; assay type: physicochemical; details: 1 mg/mL in 25 mM sodium acetate buffer pH 4.0, 37° C., 6 days, orbital shaking; >144 h = no increase
Method in brief: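 Peptides at 1 mg/mL in 25 mM sodium acetate pH 4.0 were mixed with ThT (0.25 mM stock) and held 6 days at 37 °C with intermittent orbital shaking at 500–750 rpm. Fluorescence (ex 444/em 480 nm) was read every 30 min, with buffer baseline correction and 5 replicates. Value: mean time to a detectable fluorescence increase.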

Time taken to detect increase in fluorescence intensity, >144 h:
CC[C@H](C)[C@H](NC(=O)[C@@H]1CCCN1C(=O)CNC(=O)[C@H](Cc1ccccc1)NC(=O)[C@H](CC(N)=O)NC(=O)[C@H](CC(N)=O)NC(=O)[C@H](CO)NC(=O)[C@H](CO)NC(=O)[C@H](Cc1c[nH]cn1)NC(=O)[C@@H](NC(=O)[C@H](CC(C)C)NC(=O)[C@H](Cc1ccccc1)NC(=O)[C@H](CCN)NC(=O)[C@H](C)NC(=O)[C@H](CC(C)C)NC(=O)[C@H](CCCNC(=N)N)NC(=O)[C@H](CCC(N)=O)NC(=O)[C@@H](NC(=O)[C@H](C)NC(=O)[C@@H]1CSSC[C@H](NC(=O)[C@H](CCCCN)NC(=O)[C@@H](N)CCCCNC(=O)CC[C@H](NC(=O)CCCCCCCCCCCCCCCCC(=O)O)C(=O)O)C(=O)N[C@@H](CC(N)=O)C(=O)N[C@@H]([C@@H](C)O)C(=O)N[C@@H](C)C(=O)N[C@@H]([C@@H](C)O)C(=O)N1)[C@@H](C)O)C(C)C)C(=O)N[C@@H](CC(C)C)C(=O)N1CCC[C@H]1C(=O)N1CCC[C@H]1C(=O)N[C@H](C(=O)N[C@@H](CC(N)=O)C(=O)N[C@H](C(=O)NCC(=O)N[C@@H](CO)C(=O)N[C@@H](CC(N)=O)C(=O)N[C@H](C(=O)N[C@@H](Cc1ccc(O)cc1)C(N)=O)[C@@H](C)O)C(C)C)[C@@H](C)O [Peptide 33] (H-K([γGlu-C18 diacid])KCNTATCATQRLA[Dab]FLVHSSNNFGPILPPTNVGSNTY-NH2; disulfide 3-8; N-terminus assumed)
CC[C@H](C)[C@H](NC(=O)[C@@H]1CCCN1C(=O)CNC(=O)[C@H](Cc1ccccc1)NC(=O)[C@H](CC(N)=O)NC(=O)C(C)(C)NC(=O)[C@H](CO)NC(=O)[C@H](CO)NC(=O)[C@H](Cc1c[nH]cn1)NC(=O)[C@@H](NC(=O)[C@H](CC(C)C)NC(=O)[C@H](Cc1ccccc1)NC(=O)[C@H](CC(N)=O)NC(=O)[C@H](C)NC(=O)[C@H](CC(C)C)NC(=O)[C@H](CCCNC(=N)N)NC(=O)[C@H](CCC(N)=O)NC(=O)[C@@H](NC(=O)[C@H](C)NC(=O)[C@@H]1CSSC[C@H](NC(=O)[C@H](CCCCN)NC(=O)[C@@H](N)CCCCNC(=O)CC[C@H](NC(=O)CC[C@H](NC(=O)CCCCCCCCCCCCCCCCC(=O)O)C(=O)O)C(=O)O)C(=O)N[C@@H](CC(N)=O)C(=O)N[C@@H]([C@@H](C)O)C(=O)N[C@@H](C)C(=O)N[C@@H]([C@@H](C)O)C(=O)N1)[C@@H](C)O)C(C)C)C(=O)N[C@@H](CC(C)C)C(=O)N1CCC[C@H]1C(=O)N1CCC[C@H]1C(=O)N[C@H](C(=O)N[C@@H](CCCNC(=N)N)C(=O)N[C@H](C(=O)NCC(=O)N[C@@H](CO)C(=O)N[C@@H](CC(N)=O)C(=O)N[C@H](C(=O)N[C@@H](Cc1ccc(O)cc1)C(N)=O)[C@@H](C)O)C(C)C)[C@@H](C)O [Peptide 70, K(γE-γE-C18diacid)K[CNTATC]ATQRLANFLVHSS(Aib)NFGPILPPTRVGSNTY-amide] (H-K([γGlu-γGlu-C18 diacid])KCNTATCATQRLANFLVHSS[Aib]NFGPILPPTRVGSNTY-NH2; disulfide 3-8; N-terminus assumed)
CC[C@H](C)[C@H](NC(=O)[C@@H]1CCCN1C(=O)CNC(=O)[C@](C)(Cc1ccccc1)NC(=O)[C@H](CC(N)=O)NC(=O)[C@H](CC(N)=O)NC(=O)[C@H](CO)NC(=O)[C@H](CO)NC(=O)[C@H](Cc1c[nH]cn1)NC(=O)[C@@H](NC(=O)[C@H](CC(C)C)NC(=O)[C@H](Cc1ccccc1)NC(=O)[C@H](CC(N)=O)NC(=O)[C@H](C)NC(=O)[C@H](CC(C)C)NC(=O)[C@H](CCCNC(=N)N)NC(=O)[C@H](CCC(N)=O)NC(=O)[C@@H](NC(=O)[C@H](C)NC(=O)[C@@H]1CSSC[C@H](NC(=O)[C@@H](N)CCCCNC(=O)CC[C@H](NC(=O)CCCCCCCCCCCCCCCCC(=O)O)C(=O)O)C(=O)N[C@@H](CC(N)=O)C(=O)N[C@@H]([C@@H](C)O)C(=O)N[C@@H](C)C(=O)N[C@@H]([C@@H](C)O)C(=O)N1)[C@@H](C)O)C(C)C)C(=O)N[C@@H](CC(C)C)C(=O)N1CCC[C@H]1C(=O)N1CCC[C@H]1C(=O)N[C@H](C(=O)N[C@@H](CCCNC(=N)N)C(=O)N[C@H](C(=O)NCC(=O)N[C@@H](CO)C(=O)N[C@@H](CC(N)=O)C(=O)N[C@H](C(=O)N[C@@H](Cc1ccc(O)cc1)C(N)=O)[C@@H](C)O)C(C)C)[C@@H](C)O [Peptide 25, K(γE-C18diacid)[CNTATC]ATQRLANFLVHSSNN(αMePhe)GPILPPTRVGSNTY-amide] (H-K([γGlu-C18 diacid])CNTATCATQRLANFLVHSSNN[αMeF]GPILPPTRVGSNTY-NH2; disulfide 2-7; N-terminus assumed)
CC[C@H](C)[C@H](NC(=O)[C@@H]1CCCN1C(=O)CNC(=O)[C@](C)(Cc1ccccc1)NC(=O)[C@H](CC(N)=O)NC(=O)[C@H](CC(N)=O)NC(=O)[C@H](CO)NC(=O)[C@H](CO)NC(=O)[C@H](Cc1c[nH]cn1)NC(=O)[C@H](CCCNC(=N)N)NC(=O)[C@H](CC(C)C)NC(=O)[C@H](Cc1ccccc1)NC(=O)[C@H](CC(N)=O)NC(=O)[C@H](C)NC(=O)[C@H](CC(C)C)NC(=O)[C@H](CCCNC(=N)N)NC(=O)[C@H](CCC(N)=O)NC(=O)[C@@H](NC(=O)[C@H](C)NC(=O)[C@@H]1CSSC[C@H](NC(=O)[C@@H](N)CCCCNC(=O)CC[C@H](NC(=O)CCCCCCCCCCCCCCCCC(=O)O)C(=O)O)C(=O)N[C@@H](CC(N)=O)C(=O)N[C@@H]([C@@H](C)O)C(=O)N[C@@H](C)C(=O)N[C@@H]([C@@H](C)O)C(=O)N1)[C@@H](C)O)C(=O)N[C@@H](CC(C)C)C(=O)N1CCC[C@H]1C(=O)N1CCC[C@H]1C(=O)N[C@H](C(=O)N[C@@H](CC(N)=O)C(=O)N[C@H](C(=O)NCC(=O)N[C@@H](CO)C(=O)N[C@@H](CC(N)=O)C(=O)N[C@H](C(=O)N[C@@H](Cc1ccc(O)cc1)C(N)=O)[C@@H](C)O)C(C)C)[C@@H](C)O [Peptide 19, K(γE-C18diacid)[CNTATC]ATQRLANFLRHSSNN(αMePhe)GPILPPTNVGSNTY-amide] (H-K([γGlu-C18 diacid])CNTATCATQRLANFLRHSSNN[αMeF]GPILPPTNVGSNTY-NH2; disulfide 2-7; N-terminus assumed)
CC[C@H](C)[C@H](NC(=O)[C@@H]1CCCN1C(=O)CNC(=O)[C@H](Cc1ccccc1)NC(=O)[C@H](CC(N)=O)NC(=O)C(C)(C)NC(=O)[C@H](CO)NC(=O)[C@H](CO)NC(=O)[C@H](Cc1c[nH]cn1)NC(=O)[C@H](CCCNC(=N)N)NC(=O)[C@H](CC(C)C)NC(=O)[C@H](Cc1ccccc1)NC(=O)[C@H](CC(N)=O)NC(=O)[C@H](C)NC(=O)[C@H](CC(C)C)NC(=O)[C@H](CCCNC(=N)N)NC(=O)[C@H](CCC(N)=O)NC(=O)[C@@H](NC(=O)[C@H](C)NC(=O)[C@@H]1CSSC[C@H](NC(=O)[C@H](CCCCN)NC(=O)[C@@H](N)CCCCNC(=O)CC[C@H](NC(=O)CC[C@H](NC(=O)CCCCCCCCCCCCCCCCC(=O)O)C(=O)O)C(=O)O)C(=O)N[C@@H](CC(N)=O)C(=O)N[C@@H]([C@@H](C)O)C(=O)N[C@@H](C)C(=O)N[C@@H]([C@@H](C)O)C(=O)N1)[C@@H](C)O)C(=O)N[C@@H](CC(C)C)C(=O)N1CCC[C@H]1C(=O)N1CCC[C@H]1C(=O)N[C@H](C(=O)N[C@@H](CC(N)=O)C(=O)N[C@H](C(=O)NCC(=O)N[C@@H](CO)C(=O)N[C@@H](CC(N)=O)C(=O)N[C@H](C(=O)N[C@@H](Cc1ccc(O)cc1)C(N)=O)[C@@H](C)O)C(C)C)[C@@H](C)O [Peptide 66, K(γE-γE-C18diacid)K[CNTATC]ATQRLANFLRHSS(Aib)NFGPILPPTNVGSNTY-amide] (H-K([γGlu-γGlu-C18 diacid])KCNTATCATQRLANFLRHSS[Aib]NFGPILPPTNVGSNTY-NH2; disulfide 3-8; N-terminus assumed)
CC[C@H](C)[C@H](NC(=O)[C@@H]1CCCN1C(=O)CNC(=O)[C@](C)(Cc1ccccc1)NC(=O)[C@H](CC(N)=O)NC(=O)[C@H](CC(N)=O)NC(=O)[C@H](CO)NC(=O)[C@H](CO)NC(=O)[C@H](Cc1c[nH]cn1)NC(=O)[C@H](CCCNC(=N)N)NC(=O)[C@H](CC(C)C)NC(=O)[C@H](Cc1ccccc1)NC(=O)[C@H](CCC(=O)O)NC(=O)[C@H](C)NC(=O)[C@H](CC(C)C)NC(=O)[C@H](CCCNC(=N)N)NC(=O)[C@H](CCC(N)=O)NC(=O)[C@@H](NC(=O)[C@H](C)NC(=O)[C@@H]1CSSC[C@H](NC(=O)CC[C@H](NC(=O)CCCCCCCCCCCCCCCCC(=O)O)C(=O)O)C(=O)N[C@@H](CC(N)=O)C(=O)N[C@@H]([C@@H](C)O)C(=O)N[C@@H](C)C(=O)N[C@@H]([C@@H](C)O)C(=O)N1)[C@@H](C)O)C(=O)N[C@@H](CC(C)C)C(=O)N1CCC[C@H]1C(=O)N1CCC[C@H]1C(=O)N[C@H](C(=O)N[C@@H](CC(N)=O)C(=O)N[C@H](C(=O)NCC(=O)N[C@@H](CO)C(=O)N[C@@H](CC(N)=O)C(=O)N[C@H](C(=O)N[C@@H](Cc1ccc(O)cc1)C(N)=O)[C@@H](C)O)C(C)C)[C@@H](C)O [Peptide 10, C18diacid-γE-[CNTATC]ATQRLAEFLRHSSNN(αMePhe)GPILPPTNVGSNTY-amide] ({C18 diacid-γGlu}-CNTATCATQRLAEFLRHSSNN[αMeF]GPILPPTNVGSNTY-NH2; disulfide 1-6)
